Read-outs that look alike come from different tables or passages of the source.
Experiments:
Format in all cases: cell-based
[1] = tested on: CL-34; assay: CellTiter-Glo proliferation assay 72 hrs, with or without FGF2
Procedure: (§1) All cell lines were purchased from ATTC (SK-MEL-5, SK-MEL-24, UACC-62, COLO 741, COLO-800, WM-266-4, Colo205, LS411N, SW 1417), ECACC (MDST8), DSMZ (CL-34) and NCI (LOX IMVI). […] Cell lines were cultured in 37° C. and 5% CO2 incubator and expanded in T-75 flasks. In all cases cells were thawed from frozen stocks, expanded through passage using 1:3 dilutions, counted and assessed for viability using a ViCell counter (Beckman-Coulter), prior to plating in 96-well or 6-well plates. To split and expand cell lines, cells were dislodged from flasks using 0.25% Trypsin-EDTA (GIBCO, Catalog number 25200). All cell lines were determined to be free of mycoplasma contamination as determined by a PCR detection methodology performed at Idexx Radii (Columbia, Mo., USA) and correctly identified by detection of a panel of SNPs.
(§2) The Compound of Formula (I) and Compound H dissolved in 100% DMSO (Cellgro, catalog number 25-290-CQC) at concentrations of 10 mM and stored at −20° C. until use. Compounds were arrayed in 2 ml deep 96-well plates (Greiner bio-one, catalog number 780271) serially diluted 3-fold seven times yielding concentration ranges from 22 nM to 16200 nM. Recombinant Human FGF basic was purchased from R&D system (Catalog number 233-FB), and reconstituted at 50 μg/ml in sterile PBS. It was used at a fixed concentration 100 ng/ml in all experiments.
(§3) For CellTiter-Glo™ assays, cells were dispensed into tissue culture treated 96-well plates (Costar, catalog number 3904) with a final volume of 80 μL of medium and at density of 3000 cells per well. 12 to 24 hrs after plating, 20 μL of each compound dilution series were transferred to plates containing the cells, resulting in compound concentration ranges of 2700 nM to 3.7 nM by 3-fold dilutions and a final DMSO concentration of 0.16%. The total volume in each well was […]. Plates were incubated for 72 hrs and the effects of compounds on cell proliferation was determined using the CellTiter-Glo™ Luminescent Cell Viability Assay (CTG, Promega) and a Victor™ X4 plate reader (Perkin Elmer). For real-time growth assays cells were seeded into xCELLigence E-plates (Roche catalogue number 05232368001) at a density of 4000 cells per well in a total of 90 μl of media and 24 hrs after plating, 11 μl of media with or without compound was added to the wells. 2-4 replicate wells were plated for all cell lines and treatment groups with the exception of LGX818+FGF2 treated COLO 741 cells (N=1). Where indicated final concentrations of compounds and growth factor were 1 uM for Compound H, 100 ng/ml for FGF2, and either 100 nM (SK-MEL-5) or 500 nM (COLO 741) for the Compound of Formula (I). Cells were continuously monitored every two hours for seven days with the xCELLigence real-time impedance based cell analyzer. Impedance was measured using the electrodes on the E-plates, with increasing surface area coverage of cells creating greater electrode impedance. […] In all cases cell index values were normalized to a timepoint immediately following the addition of compound.
(§4) To determine whether FGFRs can rescue a subset of BRAFV600E mutant melanoma cell lines treated with the Compound of Formula (I), its anti-proliferative effects were examined in eleven T1799 mutant BRAF cell lines either in the presence or absence of the FGFR-activating ligand FGF2. […] Thus, the presence of FGF2 is able to rescue a set of BRAFV600E melanoma-derived cell lines from the anti-proliferative effects of the B-Raf inhibitor of Formula (I). Furthermore, similar effects are also observed in BRAFV600E mutant cell lines derived from CRC tumors.
(§5) Mutant (mut) and wildtype (wt) status was determined from published data. […] PTEN mut designations represent a summary call based on mutation, gene copy number, and mRNA expression information for the PTEN gene.

[2] = tested on: COLO 205; assay: as above; conditions: Homo sapiens
Procedure: as §1, §2, §3, §4, §5

[3] = tested on: COLO 741; assay: as above; conditions: Homo sapiens
Procedure: as §1, §2, §3, §4, §5

[4] = tested on: COLO-800; assay: as above; conditions: Homo sapiens
Procedure: as §1, §2, §3, §4, §5

[5] = tested on: LS411N; assay: as above; conditions: Homo sapiens, LS-411N
Procedure: as §1, §2, §3, §4, §5

[6] = tested on: MDST8; assay: as above; conditions: MDST8 (V600K)
Procedure: as §1, §2, §3, §4, §5

[7] = tested on: SK-MEL-24; assay: as above; conditions: Homo sapiens
Procedure: as §1, §2, §3, §4, §5

[8] = tested on: SK-MEL-5; assay: as above; conditions: Homo sapiens
Procedure: as §1, §2, §3, §4, §5

[9] = tested on: SW1417; assay: as above; conditions: Homo sapiens
Procedure: as §1, §2, §3, §4, §5

[10] = tested on: UACC-62; assay: as above; conditions: Homo sapiens
Procedure: as §1, §2, §3, §4, §5

[11] = tested on: WM-266-4; assay: as above; conditions: Homo sapiens, WM-266-4 (V600D)
Procedure: as §1, §2, §3, §4, §5

[12] = tested on: five CRC-derived T1799 mutant BRAF cell lines; assay: CellTiter-Glo proliferation assay, panel summary; conditions: absence of FGF2, read-out: IC50 values, range over cell lines
Procedure: as §1, with “SNPs. […]” for “SNPs.”
(§6) For CellTiter-Glo™ assays, cells were dispensed into tissue culture treated 96-well plates (Costar, catalog number 3904) with a final volume of 80 μL of medium and at density of 3000 cells per well. […] Plates were incubated for 72 hrs and the effects of compounds on cell proliferation was determined using the CellTiter-Glo™ Luminescent Cell Viability Assay (CTG, Promega) and a Victor™ X4 plate reader (Perkin Elmer). […] Cells were continuously monitored every two hours for seven days with the xCELLigence real-time impedance based cell analyzer. […]

[13] = tested on: six melanoma T1799 mutant BRAF cell lines; assay: CellTiter-Glo proliferation assay, panel summary; conditions: absence of FGF2, read-out: IC50 values, range over cell lines
Procedure: as §1, with “SNPs. […]” for “SNPs.”
as §6

[14] = with 100 ng/ml FGF2, read-out: LGX818 + FGF2 IC50
[15] = without FGF2, read-out: LGX818 IC50

Compound: COC(=O)N[C@@H](C)CNc1nccc(-c2cn(C(C)C)nc2-c2cc(Cl)cc(NS(C)(=O)=O)c2F)n1 [Compound of Formula (I)]
- IC50 ([1]; CL-34, without FGF2, read-out: LGX818 IC50): 0.038 µM
- IC50 ([1]; read-out: LGX818 + FGF2 IC50): 0.73 µM
- IC50 ([2]; Colo 205, with 100 ng/ml FGF2, read-out: LGX818 + FGF2 IC50): 0.005 µM
- IC50 ([2]; Colo 205, without FGF2, read-out: LGX818 IC50): 0.004 µM
- IC50 ([3]; COLO 741, with 100 ng/ml FGF2, read-out: LGX818 + FGF2 IC50): 2.65 µM
- IC50 ([3]; COLO 741, without FGF2, read-out: LGX818 IC50): 0.053 µM
- IC50 ([4]; COLO-800, with 100 ng/ml FGF2, read-out: LGX818 + FGF2 IC50): 0.012 µM
- IC50 ([4]; COLO-800, without FGF2, read-out: LGX818 IC50): 0.009 µM
- IC50 [5, 14]: ≥ 9.23 µM
- IC50 [5, 15]: 0.185 µM
- IC50 [6, 14]: ≥ 10 µM
- IC50 [6, 15]: 0.141 µM
- IC50 ([7]; SK-MEL-24, with 100 ng/ml FGF2, read-out: LGX818 + FGF2 IC50): 0.369 µM
- IC50 ([7]; SK-MEL-24, without FGF2, read-out: LGX818 IC50): 0.47 µM
- IC50 ([8]; SK-MEL-5, with 100 ng/ml FGF2, read-out: LGX818 + FGF2 IC50): > 1 µM
- IC50 ([8]; SK-MEL-5, without FGF2, read-out: LGX818 IC50): 0.015 µM
- IC50 ([9]; SW1417, with 100 ng/ml FGF2, read-out: LGX818 + FGF2 IC50): 0.364 µM
- IC50 ([9]; SW1417, without FGF2, read-out: LGX818 IC50): 0.165 µM
- IC50 ([10]; UACC-62, with 100 ng/ml FGF2, read-out: LGX818 + FGF2 IC50): 0.004 µM
- IC50 ([10]; UACC-62, without FGF2, read-out: LGX818 IC50): 0.002 µM
- IC50 [11, 14]: 0.004 µM
- IC50 [11, 15]: 0.003 µM
- IC50 [12]: 0.004 to 0.185 µM
- IC50 [13]: 0.003 to 0.47 µM
